Test results reported in ChEMBL document CHEMBL3352227, “Synthesis, antimycobacterial and antibacterial evaluation of l-[(1R, 2S)-2-fluorocyclopropyl]fluoroquinolone derivatives containing an oxime functional moiety” (Eur J Med Chem, 2014).
In brackets after ≈: the same amount, converted by molar mass.

Legend:
Type in all cases: functional
Escherichia coli [1] = assay: Antibacterial activity against extended-spectrum beta-lactamase producing Escherichia coli 12-15 after 18 to 24 hrs by standard twofold serial dilution method
[2] = tested on: Mycobacterium tuberculosis; assay: Antimycobacterial activity against Mycobacterium tuberculosis H37Rv ATCC 27294 by MABA method
Escherichia coli [3] = assay: Antibacterial activity against extended-spectrum beta-lactamase producing Escherichia coli 12-2 after 18 to 24 hrs by standard twofold serial dilution method
Staphylococcus aureus [4] = assay: Antibacterial activity against methicillin-sensitive Staphylococcus aureus 12-5 after 18 to 24 hrs by standard twofold serial dilution method
Klebsiella pneumoniae [5] = assay: Antibacterial activity against Klebsiella pneumoniae 12-1 after 18 to 24 hrs by standard twofold serial dilution method
Escherichia coli [6] = assay: Antibacterial activity against Escherichia coli ATCC 25922 after 18 to 24 hrs by standard twofold serial dilution method
Klebsiella pneumoniae [7] = assay: Antibacterial activity against extended-spectrum beta-lactamase producin Klebsiella pneumoniae 12-3 after 18 to 24 hrs by standard twofold serial dilution method
Klebsiella pneumoniae [8] = assay: Antibacterial activity against Klebsiella pneumoniae 12-4 after 18 to 24 hrs by standard twofold serial dilution method
Streptococcus pneumoniae [9] = assay: Antibacterial activity against Streptococcus pneumoniae 12-18 after 18 to 24 hrs by standard twofold serial dilution method
Pseudomonas aeruginosa [10] = assay: Antibacterial activity against Pseudomonas aeruginosa 12-14 after 18 to 24 hrs by standard twofold serial dilution method
Staphylococcus aureus [11] = assay: Antibacterial activity against Staphylococcus aureus ATCC 25923 after 18 to 24 hrs by standard twofold serial dilution method
Streptococcus pneumoniae [12] = assay: Antibacterial activity against Streptococcus pneumoniae ATCC 49619 after 18 to 24 hrs by standard twofold serial dilution method
[13] = tested on: Staphylococcus epidermidis; assay: Antibacterial activity against methicillin-sensitive Staphylococcus epidermidis 12-1 after 18 to 24 hrs by standard twofold serial dilution method
[14] = tested on: Staphylococcus epidermidis; assay: Antibacterial activity against methicillin-sensitive Staphylococcus epidermidis 12-8 after 18 to 24 hrs by standard twofold serial dilution method
Staphylococcus aureus [15] = assay: Antibacterial activity against methicillin-resistant Staphylococcus aureus 12-2 after 18 to 24 hrs by standard twofold serial dilution method
Escherichia coli [16] = assay: Antibacterial activity against extended-spectrum beta-lactamase producing Escherichia coli 12-14 after 18 to 24 hrs by standard twofold serial dilution method
Staphylococcus aureus [17] = assay: Antibacterial activity against methicillin-sensitive Staphylococcus aureus 12-4 after 18 to 24 hrs by standard twofold serial dilution method
Pseudomonas aeruginosa [18] = assay: Antibacterial activity against Pseudomonas aeruginosa 12-12 after 18 to 24 hrs by standard twofold serial dilution method
Escherichia coli [19] = assay: Antibacterial activity against Escherichia coli 12-1 after 18 to 24 hrs by standard twofold serial dilution method
Staphylococcus aureus [20] = assay: Antibacterial activity against methicillin-sensitive Staphylococcus aureus 12-1 after 18 to 24 hrs by standard twofold serial dilution method
Klebsiella pneumoniae [21] = assay: Antibacterial activity against extended-spectrum beta-lactamase producin Klebsiella pneumoniae 12-7 after 18 to 24 hrs by standard twofold serial dilution method
Klebsiella pneumoniae [22] = assay: Antibacterial activity against extended-spectrum beta-lactamase producin Klebsiella pneumoniae 12-4 after 18 to 24 hrs by standard twofold serial dilution method
[23] = tested on: Staphylococcus epidermidis; assay: Antibacterial activity against methicillin-sensitive Staphylococcus epidermidis 12-6 after 18 to 24 hrs by standard twofold serial dilution method
Staphylococcus aureus [24] = assay: Antibacterial activity against methicillin-resistant Staphylococcus aureus 12-5 after 18 to 24 hrs by standard twofold serial dilution method
Staphylococcus aureus [25] = assay: Antibacterial activity against methicillin-resistant Staphylococcus aureus 12-4 after 18 to 24 hrs by standard twofold serial dilution method
Klebsiella pneumoniae [26] = assay: Antibacterial activity against Klebsiella pneumoniae 12-2 after 18 to 24 hrs by standard twofold serial dilution method
[27] = tested on: Staphylococcus epidermidis; assay: Antibacterial activity against methicillin-sensitive Staphylococcus epidermidis 12-3 after 18 to 24 hrs by standard twofold serial dilution method
Klebsiella pneumoniae [28] = assay: Antibacterial activity against extended-spectrum beta-lactamase producin Klebsiella pneumoniae 12-14 after 18 to 24 hrs by standard twofold serial dilution method
[29] = tested on: Staphylococcus epidermidis; assay: Antibacterial activity against methicillin-resistant Staphylococcus epidermidis 12-6 after 18 to 24 hrs by standard twofold serial dilution method
Staphylococcus aureus [30] = assay: Antibacterial activity against methicillin-sensitive Staphylococcus aureus 12-2 after 18 to 24 hrs by standard twofold serial dilution method
Escherichia coli [31] = assay: Antibacterial activity against extended-spectrum beta-lactamase producing Escherichia coli 12-3 after 18 to 24 hrs by standard twofold serial dilution method
[32] = tested on: Staphylococcus epidermidis; assay: Antibacterial activity against methicillin-resistant Staphylococcus epidermidis 12-1 after 18 to 24 hrs by standard twofold serial dilution method

Structure (SMILES): CO/N=C1/CN(c2cc3c(cc2F)c(=O)c(C(=O)O)cn3[C@@H]2C[C@@H]2F)[C@H]1CN
- MIC (Escherichia coli [1]): > 128 µg/mL
- MIC [2]: 0.5 µg/mL (≈ 1.27 µM)
- MIC (Escherichia coli [3]): 128 µg/mL (≈ 326 µM)
- MIC (Staphylococcus aureus [4]): 0.5 µg/mL (≈ 1.27 µM)
- MIC (Klebsiella pneumoniae [5]): 0.125 µg/mL (≈ 0.319 µM)
- MIC (Escherichia coli [6]): < 0.008 µg/mL
- MIC (Klebsiella pneumoniae [7]): 64 µg/mL (≈ 163 µM)
- MIC (Klebsiella pneumoniae [8]): 0.015 µg/mL (≈ 0.0382 µM)
- MIC (Streptococcus pneumoniae [9]): 0.5 µg/mL (≈ 1.27 µM)
- MIC (Pseudomonas aeruginosa [10]): 32 µg/mL (≈ 81.6 µM)
- MIC (Staphylococcus aureus [11]): 0.06 µg/mL (≈ 0.153 µM)
- MIC (Streptococcus pneumoniae [12]): 0.125 µg/mL (≈ 0.319 µM)
- MIC [13]: 0.25 µg/mL (≈ 0.637 µM)
- MIC [14]: 0.125 µg/mL (≈ 0.319 µM)
- MIC (Staphylococcus aureus [15]): 32 µg/mL (≈ 81.6 µM)
- MIC (Escherichia coli [16]): 64 µg/mL (≈ 163 µM)
- MIC (Staphylococcus aureus [17]): 0.25 µg/mL (≈ 0.637 µM)
- MIC (Pseudomonas aeruginosa [18]): 0.25 µg/mL (≈ 0.637 µM)
- MIC (Escherichia coli [19]): 1 µg/mL (≈ 2.55 µM)
- MIC (Staphylococcus aureus [20]): 0.5 µg/mL (≈ 1.27 µM)
- MIC (Klebsiella pneumoniae [21]): 0.5 µg/mL (≈ 1.27 µM)
- MIC (Klebsiella pneumoniae [22]): 8 µg/mL (≈ 20.4 µM)
- MIC [23]: 0.25 µg/mL (≈ 0.637 µM)
- MIC (Staphylococcus aureus [24]): 32 µg/mL (≈ 81.6 µM)
- MIC (Staphylococcus aureus [25]): 64 µg/mL (≈ 163 µM)
- MIC (Klebsiella pneumoniae [26]): 0.125 µg/mL (≈ 0.319 µM)
- MIC [27]: 0.25 µg/mL (≈ 0.637 µM)
- MIC (Klebsiella pneumoniae [28]): 64 µg/mL (≈ 163 µM)
- MIC [29]: 4 µg/mL (≈ 10.2 µM)
- MIC (Staphylococcus aureus [30]): 0.5 µg/mL (≈ 1.27 µM)
- MIC (Escherichia coli [31]): 16 µg/mL (≈ 40.8 µM)
- MIC [32]: 8 µg/mL (≈ 20.4 µM)

Structure (SMILES): NCC1CN(c2c(F)cc3c(=O)c(C(=O)O)cn([C@@H]4C[C@@H]4F)c3c2Cl)C/C1=N/OCc1ccccc1 (some centres undefined)
- MIC (Escherichia coli [1]): > 128 µg/mL
- MIC [2]: 16 µg/mL (≈ 31 µM)
- MIC (Escherichia coli [3]): > 128 µg/mL
- MIC (Staphylococcus aureus [4]): 0.5 µg/mL (≈ 0.967 µM)
- MIC (Klebsiella pneumoniae [5]): 2 µg/mL (≈ 3.87 µM)
- MIC (Escherichia coli [6]): 0.5 µg/mL (≈ 0.967 µM)
- MIC (Klebsiella pneumoniae [7]): > 128 µg/mL
- MIC (Klebsiella pneumoniae [8]): 2 µg/mL (≈ 3.87 µM)
- MIC (Streptococcus pneumoniae [9]): 8 µg/mL (≈ 15.5 µM)
- MIC (Pseudomonas aeruginosa [10]): 64 µg/mL (≈ 124 µM)
- MIC (Staphylococcus aureus [11]): 0.25 µg/mL (≈ 0.484 µM)
- MIC (Streptococcus pneumoniae [12]): 1 µg/mL (≈ 1.93 µM)
- MIC [13]: 0.5 µg/mL (≈ 0.967 µM)
- MIC [14]: 64 µg/mL (≈ 124 µM)
- MIC (Staphylococcus aureus [15]): 0.5 µg/mL (≈ 0.967 µM)
- MIC (Escherichia coli [16]): > 128 µg/mL
- MIC (Staphylococcus aureus [17]): 0.25 µg/mL (≈ 0.484 µM)
- MIC (Pseudomonas aeruginosa [18]): 8 µg/mL (≈ 15.5 µM)
- MIC (Escherichia coli [19]): 32 µg/mL (≈ 61.9 µM)
- MIC (Staphylococcus aureus [20]): 0.5 µg/mL (≈ 0.967 µM)
- MIC (Klebsiella pneumoniae [21]): 16 µg/mL (≈ 31 µM)
- MIC (Klebsiella pneumoniae [22]): 32 µg/mL (≈ 61.9 µM)
- MIC [23]: 0.5 µg/mL (≈ 0.967 µM)
- MIC (Staphylococcus aureus [24]): 0.5 µg/mL (≈ 0.967 µM)
- MIC (Staphylococcus aureus [25]): 0.5 µg/mL (≈ 0.967 µM)
- MIC (Klebsiella pneumoniae [26]): 2 µg/mL (≈ 3.87 µM)
- MIC [27]: 1 µg/mL (≈ 1.93 µM)
- MIC (Klebsiella pneumoniae [28]): > 128 µg/mL
- MIC [29]: 64 µg/mL (≈ 124 µM)
- MIC (Staphylococcus aureus [30]): 0.5 µg/mL (≈ 0.967 µM)
- MIC (Escherichia coli [31]): 32 µg/mL (≈ 61.9 µM)
- MIC [32]: 0.5 µg/mL (≈ 0.967 µM)
